# Source: US11590188B2, “Composition for the treatment of urinary tract infections” (priority 2020, dated 2023)
# Read-outs that look alike come from different tables or passages of the source.
# Assays:
# [1] = Earlier antibiotic treatment of the Example 2 subjects; type: in vivo, human; details: 500 mg twice daily
# Excerpt: This can be compared to the subjects' situation before the study.
# [2] = single ingredient, doses of 15-24 grams/day; cited from earlier work
Structure (SMILES),Side effects ([1]; 6-9 months),Recurrence of UTI symptoms ([1]; after 6-9 months),Side effects [2]
CC1=C(C(=O)O)N2C(=O)[C@@H](NC(=O)[C@H](N)c3ccccc3)[C@H]2SC1 [Cephalexin],"nausea, diarrhoea and yeast infections (oral and vaginal)",UTI symptoms had reoccurred after the course of antibiotics was completed,
O=C[C@@H](O)[C@@H](O)[C@H](O)[C@H](O)CO [D-mannose],,,"bloating, gas and diarrhea"
